Results from article PMC9060145 (Skin Health and Disease, 2021).

Key:
[1] = molecular target: T1, MR (Homo sapiens, UniProt P08235); experiment: Nuclear receptor profiling, luciferase reporter in recombinant HeLa cells; format: cell-based; conditions: IA = Inactive
T1 construct: expressed in transfected cells; host or cells: recombinant HeLa cell lines
T1 sequence (P08235 1-984): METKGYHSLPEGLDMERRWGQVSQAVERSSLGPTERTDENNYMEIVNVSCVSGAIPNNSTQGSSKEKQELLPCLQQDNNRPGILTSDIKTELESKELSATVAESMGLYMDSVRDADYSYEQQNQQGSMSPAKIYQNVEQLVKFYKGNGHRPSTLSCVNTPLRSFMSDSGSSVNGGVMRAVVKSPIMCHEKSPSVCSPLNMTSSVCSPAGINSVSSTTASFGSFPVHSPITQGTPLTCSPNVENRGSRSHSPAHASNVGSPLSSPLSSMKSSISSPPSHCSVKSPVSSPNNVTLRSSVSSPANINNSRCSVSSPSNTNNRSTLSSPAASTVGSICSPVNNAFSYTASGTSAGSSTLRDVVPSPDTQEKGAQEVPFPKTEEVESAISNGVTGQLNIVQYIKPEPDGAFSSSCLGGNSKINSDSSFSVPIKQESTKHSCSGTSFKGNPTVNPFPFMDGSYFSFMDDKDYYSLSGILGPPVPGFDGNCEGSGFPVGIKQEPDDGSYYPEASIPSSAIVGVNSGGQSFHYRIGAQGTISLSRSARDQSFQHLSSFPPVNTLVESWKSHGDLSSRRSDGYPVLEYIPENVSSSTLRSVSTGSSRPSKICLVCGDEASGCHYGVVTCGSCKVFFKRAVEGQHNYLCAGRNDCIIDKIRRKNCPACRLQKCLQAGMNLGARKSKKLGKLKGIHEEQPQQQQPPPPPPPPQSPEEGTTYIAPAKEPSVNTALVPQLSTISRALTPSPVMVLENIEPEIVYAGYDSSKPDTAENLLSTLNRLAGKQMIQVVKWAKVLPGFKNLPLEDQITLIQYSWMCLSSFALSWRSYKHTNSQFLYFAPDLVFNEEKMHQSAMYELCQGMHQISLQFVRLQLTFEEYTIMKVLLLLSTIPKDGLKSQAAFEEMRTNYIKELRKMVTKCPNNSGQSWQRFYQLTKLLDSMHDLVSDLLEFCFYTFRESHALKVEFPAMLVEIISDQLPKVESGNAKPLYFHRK
Method: (§1) Nuclear receptor profiling, excluding retinoid X receptor (RXR), was previously described in detail.[24] Briefly, profiling was done using the Steady‐Glo luciferase assay kit (Promega, E2550) in recombinant HeLa cell lines expressing the respective receptors. Compounds were treated at nine doses (n = 2/dose) from 0.00015–10 µM. Data were normalized to minimum and maximum controls and 4‐parameter logistic regression fitting (Figure S2) was performed in XLfit software (IDBS).

[2] = molecular target: T2, LXRβ (Homo sapiens, UniProt P55055); experiment: as above; format: cell-based
T2 construct: expressed in transfected cells; host or cells: recombinant HeLa cell lines
T2 sequence (P55055 1-460): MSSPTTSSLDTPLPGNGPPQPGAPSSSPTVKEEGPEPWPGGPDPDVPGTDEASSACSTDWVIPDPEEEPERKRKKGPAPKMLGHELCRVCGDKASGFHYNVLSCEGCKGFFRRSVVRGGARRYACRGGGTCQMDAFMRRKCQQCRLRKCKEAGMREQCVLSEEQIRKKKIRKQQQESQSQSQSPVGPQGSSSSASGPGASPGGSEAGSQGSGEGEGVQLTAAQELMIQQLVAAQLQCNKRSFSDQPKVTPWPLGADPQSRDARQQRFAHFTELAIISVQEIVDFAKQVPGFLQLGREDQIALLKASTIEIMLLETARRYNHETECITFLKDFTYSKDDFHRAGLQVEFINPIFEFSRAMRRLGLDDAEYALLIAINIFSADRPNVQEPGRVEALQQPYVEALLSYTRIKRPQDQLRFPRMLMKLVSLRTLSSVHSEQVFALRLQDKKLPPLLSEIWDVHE
Method: as §1

[3] = molecular target: T3, CYP19 (Homo sapiens, UniProt P11511); experiment: Qualitative CYP19 screening, CYP19 Supersomes, HPLC-MS/MS; format: biochemical
T3 construct: purchased Corning (Woburn, MA)
T3 sequence (P11511 1-503): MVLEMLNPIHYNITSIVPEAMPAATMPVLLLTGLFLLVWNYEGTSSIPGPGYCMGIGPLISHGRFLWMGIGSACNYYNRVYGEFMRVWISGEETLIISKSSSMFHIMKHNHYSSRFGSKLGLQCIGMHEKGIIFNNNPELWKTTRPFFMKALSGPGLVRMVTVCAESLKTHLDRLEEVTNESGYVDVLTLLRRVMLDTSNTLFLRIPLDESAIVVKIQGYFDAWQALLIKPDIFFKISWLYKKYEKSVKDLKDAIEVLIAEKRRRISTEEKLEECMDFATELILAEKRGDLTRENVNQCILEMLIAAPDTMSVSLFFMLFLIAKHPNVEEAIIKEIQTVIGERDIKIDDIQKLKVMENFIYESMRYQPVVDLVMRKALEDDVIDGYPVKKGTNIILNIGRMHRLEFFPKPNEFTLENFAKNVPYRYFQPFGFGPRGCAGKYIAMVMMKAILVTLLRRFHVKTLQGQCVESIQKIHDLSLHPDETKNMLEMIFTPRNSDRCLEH
Method: (§2) CYP450 inhibition assays (excluding CYP19 and 1 µM CYP2C8) were performed as previously described.[31] Substrate metabolite formation was measured by HPLC‐MS/MS. Percent of control activity was determined by comparing metabolite peak areas with and without test compound. Qualitative screening of CYP2C8 (1 µM) and CYP19 is described in detail in Supporting Information. Reference compound IC50 values were determined by non‐linear regression analysis using Hill equation curve fitting.
In vitro CYP19 screening was carried out in triplicate using a modified HPLC-MS/MS protocol based on methodology provided by Admescope Ltd. DMSO stock solutions of test compounds, positive control liarozole, androstenedione substrate and solvent control were diluted with 100 mM phosphate buffer (pH 7.4) such that DMSO content in final assay conditions was 1% in a volume of 200 µL. Briefly, to a microfuge tube was added 1 µM substrate, 1 mM NAPDH, and 0.1-1 µM test compounds (final concentrations after enzyme addition) in phosphate buffer before pre-incubating for 2 min at 37 °C. CYP19/CYP450 reductase Supersomes™ enzyme (50 µL, 1.5 pmol/mL) was added to each tube, gently mixed, then incubated at 37 °C for 30 min. The reaction was quenched with an equal volume of acetonitrile containing cortisone internal standard (100 nM). […]

[4] = molecular target: T4, RARβ (Homo sapiens, UniProt P10826); experiment: Nuclear receptor profiling, luciferase reporter in recombinant HeLa cells; format: cell-based
T4 construct: expressed in transfected cells; host or cells: recombinant HeLa cell lines
T4 sequence (P10826 1-455): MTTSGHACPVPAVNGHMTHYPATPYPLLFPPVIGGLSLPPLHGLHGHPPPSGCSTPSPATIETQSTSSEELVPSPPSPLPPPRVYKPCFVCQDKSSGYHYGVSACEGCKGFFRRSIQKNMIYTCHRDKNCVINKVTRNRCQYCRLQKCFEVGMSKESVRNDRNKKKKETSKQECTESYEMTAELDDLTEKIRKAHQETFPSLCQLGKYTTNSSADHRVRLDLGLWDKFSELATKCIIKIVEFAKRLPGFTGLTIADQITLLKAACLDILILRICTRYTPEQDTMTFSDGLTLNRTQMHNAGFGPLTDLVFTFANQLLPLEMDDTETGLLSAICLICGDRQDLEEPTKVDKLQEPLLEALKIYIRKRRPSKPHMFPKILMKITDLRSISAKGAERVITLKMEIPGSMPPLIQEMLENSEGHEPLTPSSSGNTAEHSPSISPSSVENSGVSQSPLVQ
Method: as §1

[5] = molecular target: T5, RARγ (Homo sapiens, UniProt P13631); experiment: as above; format: cell-based; conditions: IA = Inactive
T5 construct: expressed in transfected cells; host or cells: recombinant HeLa cell lines
T5 sequence (P13631 1-454): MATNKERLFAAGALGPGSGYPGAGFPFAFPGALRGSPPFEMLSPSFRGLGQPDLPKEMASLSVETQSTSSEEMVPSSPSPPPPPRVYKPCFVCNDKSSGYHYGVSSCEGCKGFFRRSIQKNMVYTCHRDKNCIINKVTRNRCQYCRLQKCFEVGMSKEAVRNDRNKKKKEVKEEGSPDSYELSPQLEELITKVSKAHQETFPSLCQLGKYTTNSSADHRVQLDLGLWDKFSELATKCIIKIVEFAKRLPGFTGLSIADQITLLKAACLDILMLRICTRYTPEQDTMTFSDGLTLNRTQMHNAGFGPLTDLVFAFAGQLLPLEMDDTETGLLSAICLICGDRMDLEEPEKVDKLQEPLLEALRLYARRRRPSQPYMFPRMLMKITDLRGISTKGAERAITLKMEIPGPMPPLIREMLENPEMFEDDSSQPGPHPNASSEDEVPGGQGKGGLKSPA
Method: as §1

[6] = molecular target: T6, RARα (Homo sapiens, UniProt P10276); experiment: as above; format: cell-based
T6 construct: expressed in transfected cells; host or cells: recombinant HeLa cell lines
T6 sequence (P10276 1-462): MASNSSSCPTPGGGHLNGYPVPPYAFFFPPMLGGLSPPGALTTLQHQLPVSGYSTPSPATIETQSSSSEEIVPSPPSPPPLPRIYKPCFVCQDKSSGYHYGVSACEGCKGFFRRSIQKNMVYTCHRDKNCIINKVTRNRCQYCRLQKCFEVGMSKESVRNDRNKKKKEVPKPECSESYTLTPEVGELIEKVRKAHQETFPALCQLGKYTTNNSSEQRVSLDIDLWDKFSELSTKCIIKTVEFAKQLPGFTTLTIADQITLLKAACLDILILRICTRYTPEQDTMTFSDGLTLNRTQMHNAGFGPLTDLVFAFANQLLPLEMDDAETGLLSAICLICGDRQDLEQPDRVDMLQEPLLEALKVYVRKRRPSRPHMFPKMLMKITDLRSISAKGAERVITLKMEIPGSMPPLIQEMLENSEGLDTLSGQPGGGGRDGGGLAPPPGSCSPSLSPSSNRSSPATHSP
Method: as §1

[7] = molecular target: T7, CYP2B6 (Homo sapiens, UniProt P20813); experiment: CYP450 inhibition assay, human liver microsomes; format: biochemical
T7 construct: from tissue; host or cells: human liver microsomes (per the earlier reading and the cited method)
T7 sequence (P20813 1-491): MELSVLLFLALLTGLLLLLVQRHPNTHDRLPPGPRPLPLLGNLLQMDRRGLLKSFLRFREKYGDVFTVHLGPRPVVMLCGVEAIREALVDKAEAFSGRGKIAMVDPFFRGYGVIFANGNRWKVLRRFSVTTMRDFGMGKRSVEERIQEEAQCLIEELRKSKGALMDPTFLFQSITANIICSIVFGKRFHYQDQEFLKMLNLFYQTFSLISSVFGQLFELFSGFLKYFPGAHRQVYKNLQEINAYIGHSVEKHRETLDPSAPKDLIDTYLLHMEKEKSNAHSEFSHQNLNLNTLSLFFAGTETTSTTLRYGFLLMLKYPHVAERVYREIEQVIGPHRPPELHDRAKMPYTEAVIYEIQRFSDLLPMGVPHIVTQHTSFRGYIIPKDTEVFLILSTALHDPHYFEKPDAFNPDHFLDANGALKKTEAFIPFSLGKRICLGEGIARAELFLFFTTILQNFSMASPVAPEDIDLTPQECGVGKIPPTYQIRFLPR
Method: as §2

[8] = molecular target: T8, CYP2C19 (Homo sapiens, UniProt P33261); experiment: CYP450 inhibition assay, human liver microsomes; format: biochemical; conditions: substrate omeprazole
T8 construct: from tissue; host or cells: human liver microsomes (per the earlier reading and the cited method)
T8 sequence (P33261 whole entry): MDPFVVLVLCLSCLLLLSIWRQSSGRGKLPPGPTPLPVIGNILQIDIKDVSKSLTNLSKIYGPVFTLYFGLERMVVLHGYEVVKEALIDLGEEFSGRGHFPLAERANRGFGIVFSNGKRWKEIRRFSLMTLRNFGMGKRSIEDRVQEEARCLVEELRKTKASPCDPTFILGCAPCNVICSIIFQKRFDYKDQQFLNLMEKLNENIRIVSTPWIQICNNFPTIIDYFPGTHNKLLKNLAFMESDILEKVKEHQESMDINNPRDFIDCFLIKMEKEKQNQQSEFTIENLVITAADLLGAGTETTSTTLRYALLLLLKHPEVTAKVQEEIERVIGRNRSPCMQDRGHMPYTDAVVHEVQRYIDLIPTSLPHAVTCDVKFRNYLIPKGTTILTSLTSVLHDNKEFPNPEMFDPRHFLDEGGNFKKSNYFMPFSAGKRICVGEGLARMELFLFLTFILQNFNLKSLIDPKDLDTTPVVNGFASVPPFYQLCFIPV

## C[C@]12C[C@H](O)[C@H]3[C@@H](CCC4=CC(=O)CC[C@@]43C)[C@@H]1CC[C@@H]2C(=O)CO [Corticosterone]
[1]
  EC50: 0.4 nM

## O=C(O)Cc1cccc(OCCCN(Cc2cccc(C(F)(F)F)c2Cl)CC(c2ccccc2)c2ccccc2)c1 [GW3965]
[2]
  EC50: 200 nM

## Clc1cccc(C(c2ccc3[nH]cnc3c2)n2ccnc2)c1 (stereo not shown) [Liarozole]
[3]; 0.1 µM compound, substrate androstenedione, calculated from decrease in metabolite formation, read-out: % Inhibition (reduction of CYP19 activity)
  inhibition at 0.1 µM: 61.1%
[3]; reference concentration 1000 nM, androstenedione 1000 nM, 30 min, 37°C
  inhibition at 1 µM: 83.8%

## CC1(C)CCSc2ccc(C#Cc3ccc(C(=O)O)cn3)cc21 [Tazarotenic acid]
[4]
  EC50: 3.2 nM
[5]
  EC50: 25 nM
[6]
  EC50: 32 nM

## COC(=O)[C@H](c1ccccc1Cl)N1CCc2sccc2C1 [clopidogrel]
[7]
  IC50: 370 nM
[7]; substrate bupropion
  nH (hill coefficient): 1.3

## CCN(CC)CC#CCOC(=O)C(O)(c1ccccc1)C1CCCCC1 (stereo not shown) [oxybutynin]
[8]
  nH (hill coefficient): 0.8
